This is an account of results in US20110046224A1, “METHODS TO ACCELERATE MUSCLE DEVELOPMENT, DECREASE FAT DEPOSITS, AND ENHANCE FEEDING EFFICIENCY IN PIGS” (BIOKAB, S.A. de C.V., priority 2009, published 2011).

In assay [1] the test system is pigs for meat supply. Description: Production characteristics of finishing pigs fed supplemented food (weight, weight gain, food intake, food conversion). The assay is classed as in vivo, York-Landrace (YL) x Duroc (DC). The following applies: for DAILY GAIN / WEIGHT GAIN / FINAL WEIGHT / AVERAGE INTAKE / TOTAL INTAKE: mean and standard deviation; for AVERAGE INTAKE: daily average food intake; for CONVERSION: food conversion; for TOTAL INTAKE: food intake. The text has this: (§1) 30 pigs were used, 15 castrated males and 15 females obtained from a terminal breeding York-Landrace (YL)×Duroc (DC); at the beginning of the study, said pigs weighted 77.83±1.20 Kg and were approximately 18 weeks old. Pigs were kept in individual pens, and were randomly distributed to 3 treatments, with ten repetitions per treatment. Treatments were: a positive control, including 5 ppm of commercial ractopamine; a second treatment including 12 ppm of pure ferulic acid and a third treatment containing 15 ppm of substantially pure ferulic acid per ton of food. Pigs were weighted every seven days, studying the following variables: initial weight, weekly weight, and final weight of the pigs; daily food intake. This was used to estimate the daily, weekly and term weight gain, as well as food efficiency. When reaching the approximate weight of 100 kg, animals were evaluated in vivo (using Piglot 105, SFK-Technology, Netherlands) in order to estimate the amount of body fat and lean efficiency. Results were evaluated randomly, using SAS general linear models procedures.

Assay [2] concerns pigs for meat supply. Description: Carcass quality of pigs fed supplemented food (body fat and lean efficiency estimated in vivo with Piglot 105). Details: species or system York-Landrace (YL) x Duroc (DC). The following applies: for Average fat / LEAN EFFICIENCY: at approx. 100 kg, mean and standard deviation.
From the text: as §1

Assay [3] concerns pigs for meat supply. Description: Production characteristics of finishing pigs fed supplemented food (weight, weight gain, food intake, food conversion). The assay is classed as in vivo, York-Landrace (YL) x Duroc (DC). The following applies: supplemented pigs vs untreated control group.

As to `COc1cc(/C=C/C(=O)O)ccc1O` [Substantially pure ferulic acid, trans-ferulic acid], in the assay on pigs for meat supply [1] (15 ppm in food), the “DAILY GAIN” value was 1.04 ± .20 kg, the “WEIGHT GAIN” value came out at 29.25 ± 5.70 kg, the “AVERAGE INTAKE” value is 2.30 ± .26 kg and the CONVERSION amounted to 2.21. Also, the “TOTAL INTAKE” value in the assay on pigs for meat supply [1] (15 ppm in food) came to 80.57 ± 8.13 kg. The “FINAL WEIGHT” value in the assay on pigs for meat supply [1] (15 ppm substantially pure ferulic acid in food, start 78.2 Kg) was found to be 107.47 ± 6.84 kg. In addition, in the assay with pigs for meat supply [2] (15 ppm in food), the “CARCASS EFFICIENCY” value is reported as 89.26%, the “EFFICIENCY IN CUTS” value is listed as 50.88%, the Average fat is on record as 9.60 ± .34 mm and the “LEAN EFFICIENCY” value was 59.66 ± 3.14%.
In the case of `CC(CCc1ccc(O)cc1)NCC(O)c1ccc(O)cc1` (stereo not shown) [Ractopamine, ractopamine, reference compound], in the assay on pigs for meat supply [3], the “intake of total food and daily average compared to the control group (untreated)” value is given as “lower intake”. Moreover, the “FINAL WEIGHT” value in the assay with pigs for meat supply [1] (5 ppm commercial ractopamine in food, start 77.33 Kg) turned out to be 105.28 ± 4.98 kg. Moreover, in the assay with pigs for meat supply [1] (5 ppm in food), the “DAILY GAIN” value was 1.00 ± .08 kg, the “WEIGHT GAIN” value came to 27.94 ± 3.20 kg, the “AVERAGE INTAKE” value was 2.35 ± .33 kg and the CONVERSION worked out at 2.32. Besides, the “TOTAL INTAKE” value in the assay with pigs for meat supply [1] (5 ppm in food) was determined as 82.33 ± 11.31 kg. In the assay on pigs for meat supply [2] (5 ppm in food), the “CARCASS EFFICIENCY” value is 87.08%, the “EFFICIENCY IN CUTS” value is listed as 51.69%, the Average fat is on record as 9.67 ± 1.11 mm and the “LEAN EFFICIENCY” value was 58.98 ± 2.20%.
On to `COc1cc(/C=C/C(=O)O)ccc1O` [Pure ferulic acid, trans-4-hydroxy-3-methoxy cinnamic acid], for which, in the assay on pigs for meat supply [1] (12 ppm in food), the “DAILY GAIN” value was 0.873 ± .20 kg, the “WEIGHT GAIN” value amounted to 24.45 ± 5.64 kg, the “AVERAGE INTAKE” value was 2.34 ± .40 kg and the CONVERSION came to 2.68. In the assay with pigs for meat supply [1] (12 ppm in food), the “TOTAL INTAKE” value was 81.75 ± 14.00 kg. Moreover, in the assay on pigs for meat supply [1] (12 ppm pure ferulic acid in food, start 79.4 Kg), the “FINAL WEIGHT” value was 103.85 ± 7.63 kg. Also, in the assay on pigs for meat supply [2] (12 ppm in food), the “CARCASS EFFICIENCY” value is 88.01%, the “EFFICIENCY IN CUTS” value was 49.66%, the Average fat is on record as 13.5 ± 3.58 mm and the “LEAN EFFICIENCY” value is listed as 56.24 ± 3.58%.
With `COc1cc(/C=C/C(=O)O)ccc1O` [ferulic acid], in the assay with pigs for meat supply [3], the “intake of total food and daily average compared to the control group (untreated)” value is on record as “lower intake”. In the assay on pigs for meat supply [2] (pigs fed with 15 ppm), the “amount of dorsal fat (in words)” value is recorded as “lower amount of dorsal fat” and the “lean efficiency (in words)” value is “better lean efficiency”.
